Experimental data: patent US20050118678A1, “Modified polypeptides with therapeutic activity and methods of use” (priority 2003, published 2005)
Residues, ends and D or L forms follow the SMILES beside them. No end group written: not given here. *: point of attachment. Stearoyl = CCCCCCCCCCCCCCCCCC(=O)*; Lauroyl = CCCCCCCCCCCC(=O)*

Experiments:
[1] = tested on: eukaryotic cell
[2] = tested on: B. anthracis; conditions: cell survival by optical density at 650 nm
[3] = tested on: E. coli IA2; conditions: IA2, pH 7
[4] = tested on: P. aeruginosa Type I; conditions: pH 7
[5] = tested on: E. coli J96; conditions: J96, pH 7
[6] = tested on: S. aureus W73134
[7] = tested on: human red blood cells; conditions: for Hemolysis (LD50): red cells of human, 1 h
[8] = tested on: S. aureus M49780
[9] = tested on: bacteria; assay: Example 3 antibacterial activity of lauric acid conjugates; format: cell-based; conditions: lauric acid conjugate vs unconjugated peptide
Excerpt: The hemolytic activity of the KAK and AKK peptides and conjugates was low. […] Fatty acid conjugation will improve the usefulness of peptides as antimicrobial agents by enhancing their ability to form secondary structures upon interacting with the bacterial membranes.

[10] = tested on: S. pyogenes Eaton; conditions: pH 7
[11] = tested on: S. pyogenes Wilson; conditions: pH 7
[12] = tested on: E. coli 055:B5 LPS; assay: Limulus amoebocyte lysate assay for LPS neutralization; format: biochemical; conditions: for IC50: 0.04 unit E. coli 055:B5 LPS, chromogenic QCL-1000 kit, read-out: LPS Binding (IC50); for LPS binding activity, fold higher than the SC4 peptide: relative to SC4
Method: Limulus amoebocyte lysate assay for lipopolysaccharide (LPS) neutralization. The ability of SC4 peptide and amphiphiles to neutralize endotoxin was measured using the chromogenic QCL-1000 kit from BioWhittaker, Inc. (Walkersville, Md). This method is quantitative for Gram-negative bacterial endotoxin (LPS) and uses peptide inhibition of LPS-mediated activation of a proenzyme as a measure of activity (Young et al., J. Clin. Invest. 51, 1790-1797 (1972)). Peptides of the appropriate concentration were mixed with Limulus amoebocyte lysate, 0.04 unit (0.01 nanogram (ng)) of E. coli 055:B5 LPS (SIGMA), and a colorless synthetic substrate (Ac-Ile-Glu-Ala-Arg-pNA) (SEQ ID NO: 18). Peptide binding to LPS was determined by monitoring enzymatic conversion of the substrate to yellow p-nitroaniline (pNA) via absorption at 410 nm. Endotoxin concentration was determined from the initial rate of enzyme activation. IC50 (concentration displaying 50% inhibition) values for LPS binding were determined by fitting to a dose-response curve.

[13] = tested on: S. aureus MN8; conditions: MN8, pH 7
[14] = tested on: drug-resistant strains of S. aureus (W73134 and M49780); assay: Example 2 antibacterial effect on drug-resistant strains; format: cell-based; conditions: W73134 and M49780, FIG. 15 and 16
[15] = tested on: S. aureus MNHO; conditions: pH 7
[16] = tested on: erythrocytes (hemolytic activity); conditions: cited from earlier work
[17] = tested on: MN8, Hoch, Knutson, FR1722, and RN6390; assay: Example 2 antibacterial effect on five Gram-positive strains; format: cell-based; conditions: FIG. 10-14

C[C@H](NC(=O)[C@H](C)NC(=O)[C@H](CCCCN)NC(=O)[C@H](C)NC(=O)[C@H](C)NC(=O)[C@H](CCCCN)NC(=O)[C@H](CCCCN)NC(=O)[C@H](C)NC(=O)[C@H](C)NC(=O)[C@H](CCCCN)NC(=O)[C@H](C)NC(=O)[C@H](C)NC(=O)[C@H](CCCCN)NC(=O)[C@H](CCCCN)NC(=O)[C@H](C)NC(=O)[C@H](C)NC(=O)CNC(=O)[C@@H](N)Cc1ccc(O)cc1)C(=O)O [AKK, YGAA[KKAAKAA](2), reference compound] (H-YGAAKKAAKAAKKAAKAA-OH)
Hemolytic activity [1]: low

CCCCCCCCCCCC(=O)N[C@@H](CCCCN)C(=O)N[C@@H](CC(C)C)C(=O)N[C@@H](Cc1ccccc1)C(=O)N[C@@H](CCCCN)C(=O)N[C@@H](CCCNC(=N)N)C(=O)N[C@@H](Cc1c[nH]cn1)C(=O)N[C@@H](CC(C)C)C(=O)N[C@@H](CCCCN)C(=O)N[C@@H](Cc1c[nH]c2ccccc12)C(=O)N[C@@H](CCCCN)C(=O)N[C@H](C(=O)N[C@H](C(N)=O)[C@@H](C)CC)[C@@H](C)CC [C12-SC4] (Lauroyl-KLFKRHLKWKII-NH2)
Bactericidal Activity (LD50) B. anthracis [2]: 3.25 µM
Change in hemolytic activity on fatty acid conjugation [1]: large increase in hemolytic activity
Bactericidal Activity (LD50) E. coli IA2 [3]: 0.079 µM
Bactericidal Activity (LD50) P. aeruginosa Type I [4]: 0.035 µM
Bactericidal Activity (LD50) E. coli J96 [5]: 0.077 µM
Bactericidal Activity (LD50) S. aureus W73134 [6]: 0.62 µM
Hemolysis (LD50) [7]: 6.2 µM
Bactericidal Activity (LD50) S. aureus M49780 [8]: 0.66 µM
Antimicrobial activity relative to unconjugated peptide [9]: increased antimicrobial activity
Bactericidal Activity (LD50) S. pyogenes Eaton [10]: 0.066 µM
Bactericidal Activity (LD50) S. pyogenes Wilson [11]: 0.16 µM
IC50 [12]: 0.23 µM
LPS binding activity, fold higher than the SC4 peptide [12]: approximately 3 fold
Bactericidal Activity (LD50) S. aureus MN8 [13]: 0.68 µM
Killing of drug-resistant S. aureus strains [14]: killed both drug-resistant strains
Bactericidal Activity (LD50) S. aureus MNHO [15]: 0.34 µM

conjugated KAK: KAK peptide YG[AKAKAAKA](2) conjugated with lauric acid (YGAKAKAAKA; numbers in words are those of the source; also: dimer [AKAKAAKA](2), lauric acid conjugate, place not given here)
Hemolytic activity [1]: low

C[C@H](NC(=O)[C@H](CCCCN)NC(=O)[C@H](C)NC(=O)[C@H](C)NC(=O)[C@H](CCCCN)NC(=O)[C@H](C)NC(=O)[C@H](CCCCN)NC(=O)[C@H](C)NC(=O)[C@H](C)NC(=O)[C@H](CCCCN)NC(=O)[C@H](C)NC(=O)[C@H](C)NC(=O)[C@H](CCCCN)NC(=O)[C@H](C)NC(=O)[C@H](CCCCN)NC(=O)[C@H](C)NC(=O)CNC(=O)[C@@H](N)Cc1ccc(O)cc1)C(=O)O [KAK, YG[AKAKAAKA](2), reference compound] (H-YGAKAKAAKAAKAKAAKA-OH)
Hemolytic activity [1]: low

CC[C@H](C)[C@H](NC(=O)[C@@H](NC(=O)[C@H](CCCCN)NC(=O)[C@H](Cc1c[nH]c2ccccc12)NC(=O)[C@H](CCCCN)NC(=O)[C@H](CC(C)C)NC(=O)[C@H](Cc1c[nH]cn1)NC(=O)[C@H](CCCNC(=N)N)NC(=O)[C@H](CCCCN)NC(=O)[C@H](Cc1ccccc1)NC(=O)[C@H](CC(C)C)NC(=O)[C@@H](N)CCCCN)[C@@H](C)CC)C(N)=O [SC4, KLFKRHLKWKII, reference compound] (H-KLFKRHLKWKII-NH2)
Bactericidal Activity (LD50) B. anthracis [2]: >15 µM
Bactericidal Activity (LD50) E. coli IA2 [3]: 0.21 µM
Bactericidal Activity (LD50) P. aeruginosa Type I [4]: 0.028 µM
Bactericidal Activity (LD50) E. coli J96 [5]: 0.12 µM
Bactericidal Activity (LD50) S. aureus W73134 [6]: 2.3 µM
Concentration up to which little hemolytic activity was demonstrated [7]: > 400 µM
Hemolysis (LD50) [7]: >375 µM
Bactericidal Activity (LD50) S. aureus M49780 [8]: 2.0 µM
Bactericidal Activity (LD50) S. pyogenes Eaton [10]: >2.0 µM
Concentration below which no hemolytic activity is shown [16]: ≥ 100 µM
Bactericidal Activity (LD50) S. pyogenes Wilson [11]: >1.0 µM
Bactericidal Activity (LD50) S. aureus MN8 [13]: 1.3 µM
Bactericidal Activity (LD50) S. aureus MNHO [15]: 2.3 µM

conjugated AKK: AKK peptide YGAA[KKAAKAA](2) conjugated with lauric acid (YGAAKKAAKAA; numbers in words are those of the source; also: dimer [KKAAKAA](2), lauric acid conjugate, place not given here)
Hemolytic activity [1]: low
Antimicrobial activity relative to unconjugated peptide [9]: increased antimicrobial activity

CCCCCCCCCCCCCCCCCC(=O)N[C@@H](CCCCN)C(=O)N[C@@H](CC(C)C)C(=O)N[C@@H](Cc1ccccc1)C(=O)N[C@@H](CCCCN)C(=O)N[C@@H](CCCNC(=N)N)C(=O)N[C@@H](Cc1c[nH]cn1)C(=O)N[C@@H](CC(C)C)C(=O)N[C@@H](CCCCN)C(=O)N[C@@H](Cc1c[nH]c2ccccc12)C(=O)N[C@@H](CCCCN)C(=O)N[C@H](C(=O)N[C@H](C(N)=O)[C@@H](C)CC)[C@@H](C)CC [C18-SC4] (Stearoyl-KLFKRHLKWKII-NH2)
Increase in antibacterial effect relative to SC-4 [17]: ten to twenty fold increases
Bactericidal Activity (LD50) B. anthracis [2]: 2.23 µM
Bactericidal Activity (LD50) E. coli IA2 [3]: 0.19 µM
Bactericidal Activity (LD50) P. aeruginosa Type I [4]: 0.042 µM
Bactericidal Activity (LD50) E. coli J96 [5]: 0.23 µM
Bactericidal Activity (LD50) S. aureus W73134 [6]: 0.10 µM
Hemolytic activity, fold more hemolytic than C12-SC4 [7]: roughly 3 fold
Hemolysis (LD50) [7]: 1.9 µM
Bactericidal Activity (LD50) S. aureus M49780 [8]: 0.24 µM
Bactericidal Activity (LD50) S. pyogenes Eaton [10]: 0.11 µM
Bactericidal Activity (LD50) S. pyogenes Wilson [11]: 0.13 µM
IC50 [12]: 0.082 µM
LPS binding activity, fold higher than the SC4 peptide [12]: ~6 fold
Bactericidal Activity (LD50) S. aureus MN8 [13]: 0.11 µM
Killing of drug-resistant S. aureus strains [14]: killed both drug-resistant strains
Bactericidal Activity (LD50) S. aureus MNHO [15]: 0.068 µM
